Structures can show the parent of a compound that is named as a salt. Where two headings read alike, the source gives them in different places.
Experiments:
Assay type in all cases: biochemical
[1] = target: human α-thrombin (Homo sapiens (Human), UniProt P00734); assay: Enzymatic assay for thrombin (Boc-VPR-AMC substrate)
[2] = target: mMASP-2 (Mus musculus (Mouse), UniProt Q91WP0); assay: Enzymatic inhibition of mMASP-2; conditions: read-out: mMASP-2 Ki
[3] = target: MASP-2 (CCP1-CCP2-SP) (Homo sapiens (Human), UniProt O00187); assay: biochemical
[4] = system: Lectin Pathway; assay: Lectin pathway activation assay in human serum (mannan-coated ELISA, C3c detection); conditions: 1% human serum
[5] = MASP-2 inhibition versus thrombin
[6] = selectivity for MASP-2 inhibition versus thrombin

Sequence of mMASP-2 (Q91WP0 20-685): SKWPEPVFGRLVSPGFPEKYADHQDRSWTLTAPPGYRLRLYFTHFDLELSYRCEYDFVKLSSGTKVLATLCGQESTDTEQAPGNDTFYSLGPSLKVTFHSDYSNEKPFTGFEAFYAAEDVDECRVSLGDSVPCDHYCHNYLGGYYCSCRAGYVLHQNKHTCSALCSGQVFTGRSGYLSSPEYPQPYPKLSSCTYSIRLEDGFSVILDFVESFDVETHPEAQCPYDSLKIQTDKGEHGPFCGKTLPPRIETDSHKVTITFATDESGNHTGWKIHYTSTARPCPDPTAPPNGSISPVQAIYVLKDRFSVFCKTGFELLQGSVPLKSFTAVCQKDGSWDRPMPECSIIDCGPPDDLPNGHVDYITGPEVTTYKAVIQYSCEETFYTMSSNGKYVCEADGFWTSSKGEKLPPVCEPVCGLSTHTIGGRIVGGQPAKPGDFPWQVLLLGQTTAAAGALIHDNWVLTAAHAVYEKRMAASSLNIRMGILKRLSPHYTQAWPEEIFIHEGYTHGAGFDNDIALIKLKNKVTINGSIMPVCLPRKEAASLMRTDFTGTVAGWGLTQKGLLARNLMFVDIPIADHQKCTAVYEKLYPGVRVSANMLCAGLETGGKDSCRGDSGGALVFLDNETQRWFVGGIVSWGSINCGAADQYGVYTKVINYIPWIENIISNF
Sequence of MASP-2 (CCP1-CCP2-SP) (O00187 445-686): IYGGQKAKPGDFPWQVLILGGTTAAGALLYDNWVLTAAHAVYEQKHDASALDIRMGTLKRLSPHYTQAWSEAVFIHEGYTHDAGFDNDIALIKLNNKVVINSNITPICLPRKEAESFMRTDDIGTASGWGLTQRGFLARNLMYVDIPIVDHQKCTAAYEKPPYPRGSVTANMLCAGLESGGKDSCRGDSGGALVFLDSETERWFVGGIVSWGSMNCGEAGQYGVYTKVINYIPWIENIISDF

Cc1c(Cl)cccc1CC[C@@H](N)C(=O)N[C@@H](C)C(=O)NCc1ccc(C(=N)N)cc1 [compound 1103]
Ki ([1]; read-out: Thrombin Ki): < 0.5 µM
Ki [2]: < 0.5 µM
MASP-2 vs. thrombin selectivity [3, 5]: ** (5.0 to 25-fold)
Ki ([3]; read-out: MASP-2 Ki): < 0.5 µM
IC50 [4]: 0.05 to 0.5 µM

C[C@H](NC(=O)[C@@H](CCc1ccccc1)NCCc1cccc(OC(F)(F)F)c1)C(=O)NCc1ccc(C(=N)N)cc1 [compound 1352, (R)—N—((S)-1-((4-Carbamimidoylbenzyl)amino)-1-oxopropan-2-yl)-4-phenyl-2-((3-(trifluoromethoxy)phenethyl)amino)butanamide Di-trifluoroacetate salt]
Ki ([1]; Thrombin Ki (μM)): 0.5 to 2.5 µM
Ki [2]: < 0.5 µM
Ki ([3]; read-out: MASP-2 Ki): < 0.5 µM
MASP-2 vs. thrombin selectivity [3, 6]: *** (≥25 to <100-fold)
IC50 [4]: 0.05 to 0.5 µM

C[C@H](NC(=O)c1cc(-c2ccccc2)c(-c2ccccc2)[nH]1)C(=O)NCc1ccc(C(=N)N)cc1 [compound 1240, (S)—N-(1-((4-Carbamimidoylbenzyl)amino)-1-oxopropan-2-yl)-4,5-diphenyl-1H-pyrrole-2-carboxamide]
Ki ([1]; Thrombin Ki (μM)): 10 to 25 µM
Ki [3]: 0.5 to 2.5 µM
MASP-2 vs. thrombin selectivity [3, 6]: ** (≥5.0 to <25-fold)
IC50 [4]: 0.5 to 5 µM

Cc1nc(N)ccc1CNC(=O)[C@H](C)NC(=O)[C@H]1C[C@H](Oc2ccc(Br)cc2)CN1 [compound 1445, (2R,4S)—N—((S)-1-(((6-Amino-2-methylpyridin-3-yl)methyl)amino)-1-oxopropan-2-yl)-4-(4-bromophenoxy)pyrrolidine-2-carboxamide Dihydrochloride]
Ki ([1]; read-out: Thrombin Ki): > 25 µM
Ki [2]: 0.5 to 2.5 µM
Ki ([3]; read-out: MASP-2 Ki): < 0.5 µM
MASP-2 vs. thrombin selectivity [3, 6]: **** (≥100-fold)
IC50 [4]: 5 to 50 µM

C[C@H](NC(=O)[C@H](N)C1Cc2ccccc2C1)C(=O)NCc1ccc2nc(N)ccc2c1 [compound 1091]
Ki ([1]; read-out: Thrombin Ki): > 25 µM
Ki [2]: < 0.5 µM
IC50 [4]: 5 to 50 µM

C[C@@H](C(=O)NCc1ccc2c(N)nccc2c1)N(C)C(=O)[C@H](N)CCc1cccc(C(F)(F)F)c1 [compound 1139, (R)-2-Amino-N—((S)-1-(((1-aminoisoquinolin-6-yl)methyl)amino)-1-oxopropan-2-yl)-N-methyl-4-(3-(trifluoromethyl)phenyl)butanamide Dihydrochloride]
Ki [2]: < 10 µM
Ki ([3]; read-out: MASP-2 Ki): < 0.5 µM
IC50 [4]: 5 to 50 µM

N=C(N)c1ccc(CNC(=O)[C@@H]2CCCN2C(=O)[C@H](NCC(=O)O)C2CCCCC2)cc1 [compound 1115]
Ki ([1]; read-out: Thrombin Ki): < 0.5 µM
MASP-2 vs. thrombin selectivity [3, 5]: −− (less than 1.0-fold)
Ki ([3]; read-out: MASP-2 Ki): < 0.5 µM
IC50 [4]: 0.5 to 5 µM

C[C@H](NC(=O)[C@H](N)CCc1ccccc1)C(=O)NCCc1ccnc(N)c1 [compound 1016, (R)-2-Amino-N—((S)-1-((2-(2-aminopyridin-4-yl)ethyl)amino)-1-oxopropan-2-yl)-4-phenylbutanamide Dihydrochloride]
Ki ([1]; read-out: Thrombin Ki): > 25 µM
Ki [2]: < 25 µM
IC50 [4]: 5 to 50 µM

N=C(N)c1ccc(CNC(=O)[C@@H]2CCN2C(=O)[C@H](N)CCCc2ccccc2)cc1 [compound 1069]
Ki ([1]; read-out: Thrombin Ki): < 0.5 µM
MASP-2 vs. thrombin selectivity [3, 5]: −− (less than 1.0-fold)
Ki ([3]; read-out: MASP-2 Ki): < 0.5 µM
IC50 [4]: 0.5 to 5 µM

Cc1ccc(CSC(C)(C)[C@@H](N)C(=O)N2CC[C@H]2C(=O)NCc2ccc(C(=N)N)cc2)cc1 [compound 1133]
Ki ([1]; read-out: Thrombin Ki): < 0.5 µM
MASP-2 vs. thrombin selectivity [3, 5]: −− (less than 1.0-fold)
Ki ([3]; read-out: MASP-2 Ki): < 0.5 µM
IC50 [4]: 5 to 50 µM

N=C(N)c1ccc(CNC(=O)[C@@H]2CCCCN2C(=O)[C@H](NCC(=O)O)C2CCCCC2)cc1 [compound 1127]
Ki ([1]; read-out: Thrombin Ki): < 0.5 µM
IC50 [4]: 5 to 50 µM

C[C@H](NC(=O)[C@H](N)CCCc1ccccc1)C(=O)NCc1ccc(C(=N)N)cc1 [compound 1042]
Ki ([1]; read-out: Thrombin Ki): < 0.5 µM
MASP-2 vs. thrombin selectivity [3, 5]: ** (5.0 to 25-fold)
Ki ([3]; read-out: MASP-2 Ki): < 0.5 µM
IC50 [4]: < 0.05 µM

Nc1nccc2cc(CNC(=O)[C@@H]3CCN3C(=O)[C@H](N)C3CCCCC3)ccc12 [compound 1041, (S)-1-((R)-2-Amino-2-cyclohexylacetyl)-N-((1-aminoisoquinolin-6-yl)methyl)azetidine-2-carboxamide dihydrochloride]
Ki ([1]; read-out: Thrombin Ki): < 0.5 µM
IC50 [4]: 5 to 50 µM

C[C@H](NC(=O)[C@H](N)C1Cc2ccccc2C1)C(=O)NCc1ccc2c(N)nccc2c1 [compound 1088, (S)-2-((R)-2-Amino-2-(2,3-dihydro-1H-inden-2-yl)acetamido)-N-((1-aminoisoquinolin-6-yl)methyl)propanamide Dihydrochloride]
Ki [2]: < 0.5 µM
Ki ([3]; read-out: MASP-2 Ki): < 0.5 µM
IC50 [4]: 0.05 to 0.5 µM

CC(C)(C)[C@@H](NCC(=O)O)C(=O)N1CC[C@H]1C(=O)NCc1ccc(C(=N)N)cc1 [compound 1055]
Ki ([1]; read-out: Thrombin Ki): < 0.5 µM
IC50 [4]: 5 to 50 µM

N=C(N)c1ccc(CNC(=O)[C@@H]2CCN2C(=O)[C@H](NCC(=O)O)C2CCCC2)cc1 [compound 1083]
Ki ([1]; read-out: Thrombin Ki): < 0.5 µM
MASP-2 vs. thrombin selectivity [3, 5]: −− (less than 1.0-fold)
Ki ([3]; read-out: MASP-2 Ki): < 0.5 µM
IC50 [4]: 5 to 50 µM

Cc1nc(N)ccc1CNC(=O)[C@H](C)NC(=O)C1=CC(c2ccccc2)C2=C(CC(C)(C)CC2=O)N1 (stereo partly drawn) [compound 1388, N-((S)-1-(((6-Amino-2-methylpyridin-3-yl)methyl)amino)-1-oxopropan-2-yl)-7,7-dimethyl-5-oxo-4-phenyl-1,4,5,6,7,8-hexahydroquinoline-2-carboxamide]
Ki ([1]; read-out: Thrombin Ki): > 25 µM
Ki [2]: < 0.5 µM
IC50 [4]: < 0.05 µM

N=C(N)c1ccc(CNC(=O)[C@@H]2CCN2C(=O)[C@@H](CCCc2ccccc2)NCC(=O)O)cc1 [compound 1131]
Ki ([1]; read-out: Thrombin Ki): < 0.5 µM
MASP-2 vs. thrombin selectivity [3, 5]: −− (less than 1.0-fold)
Ki ([3]; read-out: MASP-2 Ki): < 0.5 µM
IC50 [4]: 0.5 to 5 µM

N=C(N)c1ccc(CNC(=O)[C@@H]2CCN2C(=O)[C@@H](Cc2ccccc2)NCC(=O)O)cc1 [compound 1109]
Ki ([1]; read-out: Thrombin Ki): < 0.5 µM
IC50 [4]: > 50 µM

N=C(N)c1ccc(CNC(=O)[C@@H]2CCN2C(=O)[C@H](N)Cc2ccccc2)cc1 [compound 1023]
Ki ([1]; read-out: Thrombin Ki): < 0.5 µM
IC50 [4]: 5 to 50 µM

N=C(N)c1ccc(CNC(=O)[C@@H]2CCN2C(=O)[C@H](NCC(=O)O)C2Cc3ccccc3C2)cc1 [compound 1129]
Ki ([1]; read-out: Thrombin Ki): < 0.5 µM
MASP-2 vs. thrombin selectivity [3, 5]: −− (less than 1.0-fold)
Ki ([3]; read-out: MASP-2 Ki): < 0.5 µM
IC50 [4]: 0.5 to 5 µM

Cc1nc(N)ccc1CNC(=O)C(C)NC(=O)[C@H]1C[C@H](c2cccc(-c3ccccc3)c2)CN1 (stereo in doubt) [compound 1360, (2R,4R)-4-([1,1′-Biphenyl]-3-yl)-N—((R)-1-(((6-amino-2-methylpyridin-3-yl)methyl)amino)-1-oxopropan-2-yl)pyrrolidine-2-carboxamide Di-trifluoroacetate salt]
Ki ([1]; read-out: Thrombin Ki): > 25 µM
Ki [2]: < 0.5 µM
IC50 [4]: 0.05 to 0.5 µM

Cc1nc(N)ccc1CNC(=O)[C@H](C)NC(=O)[C@H]1C[C@H](Cc2ccc(-c3ccc(F)cc3C#N)cc2)CN1 [compound 1396, (2R,4S)—N—((S)-1-(((6-Amino-2-methylpyridin-3-yl)methyl)amino)-1-oxopropan-2-yl)-4-((2′-cyano-4′-fluoro-[1,1′-biphenyl]-4-yl)methyl)pyrrolidine-2-carboxamide]
Ki ([1]; read-out: Thrombin Ki): > 25 µM
Ki [2]: < 0.5 µM
IC50 [4]: 0.5 to 5 µM

N=C(N)c1ccc(CNC(=O)[C@@H]2CCN2C(=O)[C@@H](CC2CCCCC2)NCC(=O)O)cc1 [compound 1114]
Ki ([1]; read-out: Thrombin Ki): < 0.5 µM
MASP-2 vs. thrombin selectivity [3, 5]: −− (less than 1.0-fold)
Ki ([3]; read-out: MASP-2 Ki): < 0.5 µM
IC50 [4]: 0.5 to 5 µM

C[C@H](NC(=O)[C@H](N)CCc1ccccc1)C(=O)NCCc1ccc(N)nc1 [compound 1015, (R)-2-Amino-N—((S)-1-((2-(6-aminopyridin-3-yl)ethyl)amino)-1-oxopropan-2-yl)-4-phenylbutanamide Dihydrochloride]
Ki ([1]; read-out: Thrombin Ki): > 25 µM
Ki [2]: < 25 µM
IC50 [4]: 5 to 50 µM

C[C@H](NC(=O)[C@H]1C[C@@H](c2ccccc2)CCN1)C(=O)NCc1ccc(N)nc1 (stereo in doubt) [compound 1025]
Ki ([1]; read-out: Thrombin Ki): > 25 µM
IC50 [4]: 0.5 to 5 µM

N=C(N)c1ccc(CNC(=O)[C@@H]2CCN2C(=O)[C@H](N)c2ccccc2)cc1 [compound 1011, (S)-1-((R)-2-amino-2-phenylacetyl)-N-(4-carbamimidoylbenzyl)azetidine-2-carboxamide]
Ki ([1]; read-out: Thrombin Ki): < 0.5 µM
MASP-2 vs. thrombin selectivity [3, 5]: −− (less than 1.0-fold)
Ki ([3]; read-out: MASP-2 Ki): < 0.5 µM
IC50 [4]: 0.5 to 5 µM

N=C(N)c1ccc(CNC(=O)[C@@H]2CCCCN2C(=O)[C@H](N)C2CCCCC2)cc1 [compound 1051]
Ki ([1]; read-out: Thrombin Ki): < 0.5 µM
IC50 [4]: 5 to 50 µM

C[C@H](NC(=O)[C@H](NCC(=O)O)C1CCCCC1)C(=O)NCc1ccc(C(=N)N)cc1 [compound 1094]
Ki ([1]; read-out: Thrombin Ki): < 0.5 µM
MASP-2 vs. thrombin selectivity [3, 5]: −− (less than 1.0-fold)
Ki ([3]; read-out: MASP-2 Ki): < 0.5 µM
IC50 [4]: 5 to 50 µM

C[C@H](NC(=O)[C@H](N)Cc1csc2ccccc12)C(=O)NCc1ccc(C(=N)N)cc1 [compound 1099]
Ki ([1]; read-out: Thrombin Ki): < 0.5 µM
MASP-2 vs. thrombin selectivity [3, 5]: −− (less than 1.0-fold)
Ki ([3]; read-out: MASP-2 Ki): < 0.5 µM
IC50 [4]: 0.05 to 0.5 µM

C[C@H](NC(=O)[C@H]1C[C@H](Cc2ccccc2)CN1)C(=O)NCc1cnc2c(c1)c(Cl)cn2C [compound 1450, (2R,4S)-4-Benzyl-N-((S)-1-(((3-chloro-1-methyl-1H-pyrrolo[2,3-b]pyridin-5-yl)methyl)amino)-1-oxopropan-2-yl)pyrrolidine-2-carboxamide Dihydrochloride]
Ki [2]: < 0.5 µM
Ki ([3]; read-out: MASP-2 Ki): < 0.5 µM
MASP-2 vs. thrombin selectivity [3, 6]: **** (≥100-fold)
IC50 [4]: 0.05 to 0.5 µM

C[C@H](NC(=O)[C@H](N)C1Cc2ccccc2C1)C(=O)NCc1ccc(C(=N)N)cc1 [compound 1035]
Ki ([1]; read-out: Thrombin Ki): < 0.5 µM
MASP-2 vs. thrombin selectivity [3, 5]: ** (5.0 to 25-fold)
Ki ([3]; read-out: MASP-2 Ki): < 0.5 µM
IC50 [4]: < 0.05 µM
